How the values were obtained:
[1] = tested on: tumor-infiltrating CD3+ T cells; experiment: Single-cell RNA-seq of tumor-infiltrating CD3+ T cells from KP GEMM lung tumors; type: in vivo, mouse
From the text: Library preparation and pre-processing: Single-cell suspensions from KrasG^12D/+Trp53^fl/fl GEMM mice treated with trilaciclib were isolated as described for tumor-infiltrating immune cells, with modifications. After isolation, live cells were stained and sorted for the CD45+CD3+DAPI-population and plated at one cell/well of a skirted twin.tec 96-well plate (Eppendorf) containslxTCL buffer (Qiagen cat #1031576) spiked with ERCC (Ambion, 1:2,000,000 dilution ratio). A total of four 96-well plates were generated, two plates with and two plates without ERCC spike-ins. After sorting, full-length RNA-seq from isolated single cells was performed according to SMART-seq2 protocol with modifications. Briefly, total RNA was purified using RNA-SPRI beads. Poly(A)+ mRNA was converted to cDNA for amplification. The converted cDNA transcript was subject to barcoding specific to each sample using transposon-based fragmentation that used dual-indexing. For single-cell sequencing, each cell was given its own combination of barcodes. Barcoded cDNA fragments were then pooled prior to sequencing. Sequencing was carried out as paired-end (PE) 2×36 bp with an additional 8 cycles for each index on NexSeq 500 desktop sequencer (Illumina). To obtain quantitative mapping information, PE reads were mapped to the mouse genome (mm9), concatenated with ERCC sequences for spiked-in samples, by STAR (56). Estimated transcript counts and transcripts per million (TPM) for the mouse Gencode vM1 annotation, concatenated with ERCC sequence information for spiked-in samples, were obtained using the pseudo-aligner Kallisto (57). Aggregated and library scaled TPM values for genes were obtained according to the methods described (58) and were used in further downstream differential distribution, Gene Ontology and cell cycle analysis. […] Genes were considered not expressed if TPM<1 and were subsequently removed if not detected in at least 10% of remaining cells. The single-cell RNA-seq results have been deposited in NCBI's Gene Expression Omnibus and are accessible through GEO Series accession number GSE89477 (https://www.ncbi.nlm.nih.gov/geo/query/acc.cgi?acc=GSE89477).
We used a multi-step approach using the R package SCONE to identify the optimal normalization strategy and account for possible batch effects, observed and hidden technical covariates (59). […] Next, these genes were used in the SCONE framework as negative control genes for unwanted variation for all plates. We continued with highest scored normalization strategy according to SCONE metrics, which included adjusting for batch and biological effects, removal of observed technical variation based on previously identified quality metrics, scaling for library size with DESeq, and imputing drop-out events using a combined clustering and probabilistic scoring algorithm.
To assign cells to a cell-cycle stage we applied the cyclone classification tool as previously described (60).
Subsequently, we combined two approaches. […] Next, these genes were used to perform PCA and the 100 most correlated and anti-correlated genes for the first 5 principal components were retained for reducing dimensionality and separating cells in gene expression space with t-SNE. Distinct groups were identified applying density based clustering (dbscan) on the t-SNE generated coordinates, resulting in three (3) groups of cells.
Genes that display differential distribution between previously identified groups or between treatments were discovered by performing pairwise comparisons with the scDD (http://biorxiv.org/content/early/2015/12/29/035501) package in R. Enriched biological processes were identified using the online GOrilla tool (http://bmcbioinformatics.biomedcentral.com/articles/10.1186/1471-2105-10-48).

total splenocytes = experiment: IFNγ production (ELISA) by splenocytes of mice treated in vivo; design: species or system mouse; details: tumor-bearing mice, 100 mg/kg IP
Procedure: FIG. 11. Tumor antigen experienced T cells are more sensitive to CDK4/6 inhibition. A. Naive C57BL/6 mice were treated with trilaciclib (100 mg/kg, IP) or vehicle for three days. Two and seven days after the final treatment, splenocytes were isolated and stimulated with α-CD3/CD28 antibodies for 72 hours to measure IFNγ production by ELISA. B. C57BL/6 mice were implanted with B16F10 tumor cells. Seven days post implantation mice were treated with trilaciclib (100 mg/kg, IP) or vehicle for 5 days. Five days post final treatment splenocytes were isolated and stimulated with α-CD3/CD28 antibodies for IFNγ production by ELISA. C. IL-2 production from Tconv (CD4^+CD25^−) cells after trilaciclib treatment. Tconv cells were isolated from either naive or tumor bearing (TMB) mice and treated with trilaciclib at indicated concentrations, in the presence of CD3 and CD28 antibodies. IL-2 production was determined 3 days after the treatment as percentage. (n=3) IFNγ production in CD8^+ T cells alone from naive or TMB mice after treatment with trilaciclib, as shown by percentage (D) or fold change (E). (n=3) F. Increased IFNγ production in CD8+ T cells by trilaciclib in the presence of Tregs. […] IFNγ production was determined 3 days after the treatment as shown as percentage. […]

MC38 = MC38 syngeneic colon adenocarcinoma model; type: in vivo, mouse
Procedure: For syngeneic models, MC38 and CT26 cells were injected into 6-8 week C57BL/6 or Balb/c female mice subcutaneously, respectively. Vehicle control, CDK4/6 inhibitors (trilaciclib or palbociclib) were treated alone or together with PD-1 antibody starting at the indicated time point, using an intermittent dosing schedule of 3 days on, 4 days off until experimental endpoint. PD-1 antibody was administered 3 times a week (Monday, Wednesday and Friday) at 200 μg/mouse through I.P. injection.

Structure (SMILES): CN1CCN(c2ccc(Nc3ncc4cc5n(c4n3)C3(CCCCC3)CNC5=O)nc2)CC1 [trilaciclib]
- log2(G1T28 vs vehicle) ([1]; gene Aifl): Aifl^65 1.045
- log2(G1T28 vs vehicle) ([1]; gene Ccl2): Ccl2^63, 690.6
- log2(G1T28 vs vehicle) ([1]; gene Ccl5): Ccl5^63 0.7416
- log2(G1T28 vs vehicle) ([1]; gene Ccna2): Ccna2^71 −1.194
- log2(G1T28 vs vehicle) ([1]; gene Ccnd1): Ccnd1^67 0.8223
- log2(G1T28 vs vehicle) ([1]; gene Ccr2): Ccr2^61 3.091
- log2(G1T28 vs vehicle) ([1]; gene Cd22): Cd22^72 −1.232
- log2(G1T28 vs vehicle) ([1]; gene Cd86): Cd86^70 0.621
- log2(G1T28 vs vehicle) ([1]; gene Clcf1): Clcf1^63 1.47
- log2(G1T28 vs vehicle) ([1]; gene Csfl): Csfl^63 0.5966
- log2(G1T28 vs vehicle) ([1]; gene Cx3cr1): Cx3cr1^22 1.233
- log2(G1T28 vs vehicle) ([1]; gene Cxcl1): Cxcl1^68 0.7175
- log2(G1T28 vs vehicle) ([1]; gene Ece1): Ece1^62 2.974
- log2(G1T28 vs vehicle) ([1]; gene Il2ra): Il2ra^66 0.9413
- log2(G1T28 vs vehicle) ([1]; gene Il7r): Il7r^64 1.461
- log2(G1T28 vs vehicle) ([1]; gene Tnfsf8): Tnfsf8^63 1.037
- IL-2 signaling activation ([1]; group 3, and group 1 to a lesser extent): significantly increased IL-2 signaling activation
- proportion of T cells in the G1 phase ([1]; groups 1 and 3): increased the proportion of T cells in the G1 phase
- IFNγ secretion of total splenocytes (total splenocytes): increased IFNγ secretion
- increase in CD4+ IL-2 production (MC38; TILs, trilaciclib added to PD-1 blockade, day 17): ~2 fold
- tumor growth (MC38; intermittent trilaciclib (100 mg/kg, 3 days on, 4 days off) added to PD-1 blockade): nearly eliminated tumor growth
- increase in levels of IFNγ in CD8+ TILs (MC38; trilaciclib added to PD-1 blockade, day 17): ~10 fold

— patent publication US11865176B2, “Compositions and methods of modulating anti-tumor immunity” (Dana-Farber Cancer Institute, Inc., priority 2016, dated 2024)
